We go through 23 molecules from patent publication US8937064B2, “Pyrazolo[1,5-a]pyrimidines useful as JAK2 inhibitors” (Vertex Pharmaceuticals Incorporated, priority 2007, dated 2015).

By Ki is commonly meant a measure of affinity in units of concentration, obtained from inhibition or displacement. A lower Ki goes with tighter binding.

The target in one experiment is JAK-2 enzyme (Homo sapiens, UniProt O60674). As to the kind of experiment: JAK2 Inhibition Assay.
JAK-2 enzyme, sequence (O60674 whole entry): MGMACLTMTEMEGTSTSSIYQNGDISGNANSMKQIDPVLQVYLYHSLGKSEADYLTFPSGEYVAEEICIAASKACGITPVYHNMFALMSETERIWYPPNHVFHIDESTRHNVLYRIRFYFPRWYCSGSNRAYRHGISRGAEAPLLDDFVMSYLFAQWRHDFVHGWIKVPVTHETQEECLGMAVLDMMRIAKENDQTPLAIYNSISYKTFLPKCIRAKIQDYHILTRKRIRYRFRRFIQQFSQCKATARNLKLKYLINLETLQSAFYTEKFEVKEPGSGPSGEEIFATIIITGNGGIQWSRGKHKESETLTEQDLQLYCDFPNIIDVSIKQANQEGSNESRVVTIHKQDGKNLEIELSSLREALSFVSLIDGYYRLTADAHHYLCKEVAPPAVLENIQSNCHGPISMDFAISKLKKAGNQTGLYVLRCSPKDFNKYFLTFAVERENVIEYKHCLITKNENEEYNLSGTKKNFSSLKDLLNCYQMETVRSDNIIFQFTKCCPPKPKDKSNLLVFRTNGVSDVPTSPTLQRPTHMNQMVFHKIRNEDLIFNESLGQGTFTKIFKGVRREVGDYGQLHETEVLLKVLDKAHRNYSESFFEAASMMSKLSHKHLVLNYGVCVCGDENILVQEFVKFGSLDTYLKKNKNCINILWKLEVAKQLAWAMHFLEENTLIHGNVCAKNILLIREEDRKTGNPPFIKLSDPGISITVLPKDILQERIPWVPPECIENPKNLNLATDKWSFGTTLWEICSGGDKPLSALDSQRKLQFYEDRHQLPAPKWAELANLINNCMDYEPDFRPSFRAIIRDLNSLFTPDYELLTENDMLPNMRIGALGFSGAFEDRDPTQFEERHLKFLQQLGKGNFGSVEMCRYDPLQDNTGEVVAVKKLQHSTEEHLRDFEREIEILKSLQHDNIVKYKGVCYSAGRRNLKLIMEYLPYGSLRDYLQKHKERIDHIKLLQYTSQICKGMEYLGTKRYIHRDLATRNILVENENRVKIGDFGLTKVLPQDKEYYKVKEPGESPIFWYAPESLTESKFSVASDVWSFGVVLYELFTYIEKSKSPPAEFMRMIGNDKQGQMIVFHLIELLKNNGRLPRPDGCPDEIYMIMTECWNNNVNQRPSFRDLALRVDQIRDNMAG
Details: not given
`CC[C@H](Nc1cc(-c2cnn3cccnc23)ncn1)c1ccc(F)c(F)c1` [Compound 145] gave an inhibition constant (Ki) of under 10 nM.

`C[C@H](Nc1cc(-c2c(N)nn3cccnc23)nc(OCCOC(C)(C)C)n1)c1ccc(F)cc1` [Compound 160] returned a Ki of 10 to 100 nM.

As to `C[C@H](Nc1cc(-c2c(N)nn3cccnc23)nc(OCC2CC2)n1)c1ccc(F)cc1` [Compound 166], the Ki was under 10 nM.

As for `C[C@H](Nc1ccnc(-c2cnn3cccnc23)n1)c1ccc(F)cc1` [Compound 224], the Ki lay within 10 to 100 nM.

As for `C[C@H](Oc1cc(-c2c(N)nn3cccnc23)ncn1)c1ccccc1` [Compound 68], the Ki was under 10 nM.

`Cc1ccccc1CNc1cc(-c2c(N)nn3cccnc23)ncn1` [Compound 11] came in with a Ki of under 10 nM.

The molecule `C[C@H](Nc1cc(-c2cnn3cccnc23)nc(OCC2CCCN2)n1)c1ccc(F)cc1F` (stereo partly shown) [Compound 216] had a Ki of under 10 nM.

On to `CC[C@H](Nc1cc(-c2c(N)nn3cccnc23)ncn1)c1ccc(F)cc1Cl` [Compound 82], for which the Ki is under 10 nM.

Consider `CC[C@H](Nc1ccnc(-c2cnn3cccnc23)n1)c1ccc(F)c(F)c1` [Compound 225], for which the Ki was in the range of 10 to 100 nM.

For `CCC(=O)Nc1nc(N[C@@H](C)c2ccc(F)cc2F)cc(-c2cnn3cccnc23)n1` [Compound 188], the inhibition constant (Ki) was under 10 nM.

`C[C@H](Nc1cc(-c2cnn3cccnc23)nc(OCCN2CCCCC2)n1)c1ccc(F)cc1F` [Compound 195] came in with a Ki of under 10 nM.

In the case of `C[C@H](Nc1cc(-c2c(N)nn3cccnc23)nc(OCCC2CC2)n1)c1ccc(F)cc1` [Compound 157], the Ki was 10 to 100 nM.

`CC(C)OCCOc1nc(N[C@@H](C)c2ccc(F)cc2F)cc(-c2cnn3cccnc23)n1` [Compound 219] returned a Ki of under 10 nM.

Turning to `C[C@H](Nc1cc(-c2c(N)nn3cccnc23)nc(OCCCN(C)C)n1)c1ccc(F)cc1` [Compound 154], the Ki was under 10 nM.

As for `CC(C)CCCOc1nc(N[C@@H](C)c2ccc(F)cc2)cc(-c2c(N)nn3cccnc23)n1` [Compound 167], the Ki was 10 to 100 nM.

As to `Nc1nn2cccnc2c1-c1cc(N2CCCC2c2ccccc2)ncn1` (stereo not shown) [Compound 57], the Ki is under 10 nM.

`CN(Cc1cccnc1)c1cc(-c2c(N)nn3cccnc23)ncn1` [Compound 33] came in with a Ki of 10 to 100 nM.

With `Nc1nn2cccnc2c1-c1cc(NC2(c3ccc(F)cc3)CC2)ncn1` [Compound 90], the Ki is under 10 nM.

`Nc1nn2cccnc2c1-c1cc(NCc2ccsc2Br)ncn1` [Compound 36] showed a Ki of under 10 nM.

For `C[C@H](Nc1cc(-c2cnn3cccnc23)nc(OCCCN(C)C)n1)c1ccc(F)cc1F` [Compound 211], the inhibition constant Ki was under 10 nM.

Regarding `C#CC(CC)Oc1nc(N[C@@H](C)c2ccc(F)cc2)cc(-c2c(N)nn3cccnc23)n1` (stereo partly shown) [Compound 180], the Ki is under 10 nM.

Turning to `CNC(=O)CC(Nc1cc(-c2cnn3cccnc23)ncn1)c1ccc(F)cc1` (stereo not shown) [Compound 141], the inhibitory constant (Ki) was under 10 nM.

`C[C@H](Nc1cc(-c2cnn3cccnc23)nc(OCCNC(C)(C)C)n1)c1ccc(F)cc1F` [Compound 206] gave an inhibitory constant (Ki) of under 10 nM.

In the next experiment the target is T1, JAK3 (Homo sapiens, UniProt P52333).
T1 sequence (P52333 1-1124): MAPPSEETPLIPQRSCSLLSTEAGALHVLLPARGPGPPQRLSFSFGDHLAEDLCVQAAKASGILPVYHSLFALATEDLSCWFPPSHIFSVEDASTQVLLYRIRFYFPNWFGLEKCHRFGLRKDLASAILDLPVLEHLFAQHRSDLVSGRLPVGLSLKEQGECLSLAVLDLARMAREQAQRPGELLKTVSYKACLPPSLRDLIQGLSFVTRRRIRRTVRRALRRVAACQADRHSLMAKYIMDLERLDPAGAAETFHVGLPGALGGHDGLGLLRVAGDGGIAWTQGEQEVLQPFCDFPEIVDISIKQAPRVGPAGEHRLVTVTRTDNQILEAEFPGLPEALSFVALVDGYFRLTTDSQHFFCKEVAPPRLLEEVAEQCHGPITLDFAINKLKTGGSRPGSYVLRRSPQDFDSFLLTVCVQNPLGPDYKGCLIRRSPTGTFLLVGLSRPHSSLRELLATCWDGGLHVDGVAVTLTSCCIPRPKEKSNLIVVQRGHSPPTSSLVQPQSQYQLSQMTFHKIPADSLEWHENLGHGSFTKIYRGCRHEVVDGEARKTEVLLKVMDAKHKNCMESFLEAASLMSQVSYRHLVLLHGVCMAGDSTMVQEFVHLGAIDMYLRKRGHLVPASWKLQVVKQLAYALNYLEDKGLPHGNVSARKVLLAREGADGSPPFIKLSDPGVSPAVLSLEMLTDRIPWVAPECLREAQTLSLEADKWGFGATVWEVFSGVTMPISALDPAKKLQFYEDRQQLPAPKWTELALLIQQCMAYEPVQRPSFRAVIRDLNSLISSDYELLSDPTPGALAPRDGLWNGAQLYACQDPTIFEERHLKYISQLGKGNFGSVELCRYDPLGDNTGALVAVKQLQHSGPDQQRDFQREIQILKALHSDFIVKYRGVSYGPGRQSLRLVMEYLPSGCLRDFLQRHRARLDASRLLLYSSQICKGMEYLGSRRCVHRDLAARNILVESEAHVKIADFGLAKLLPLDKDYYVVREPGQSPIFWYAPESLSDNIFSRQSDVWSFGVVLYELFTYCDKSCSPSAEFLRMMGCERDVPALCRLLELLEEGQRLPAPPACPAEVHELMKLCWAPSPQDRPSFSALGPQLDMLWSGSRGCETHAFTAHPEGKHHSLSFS
As to the kind of experiment: JAK3 Inhibition Assay. It is filed as biochemical. As to conditions: 1 nM JAK3, 1 μM poly(Glu)4Tyr, 5 μM ATP, 25° C., 33P incorporation.
In the case of `CC[C@H](Nc1cc(-c2cnn3cccnc23)ncn1)c1ccc(F)c(F)c1` [Compound 145], the inhibition constant Ki is 10 to 100 nM.

`C[C@H](Nc1cc(-c2c(N)nn3cccnc23)nc(OCCOC(C)(C)C)n1)c1ccc(F)cc1` [Compound 160] came in with a Ki of 100 to 500 nM.

For `C[C@H](Nc1cc(-c2c(N)nn3cccnc23)nc(OCC2CC2)n1)c1ccc(F)cc1` [Compound 166], the Ki was 10 to 100 nM.

For the molecule `C[C@H](Nc1ccnc(-c2cnn3cccnc23)n1)c1ccc(F)cc1` [Compound 224], the Ki was in the range of 100 to 500 nM.

`C[C@H](Oc1cc(-c2c(N)nn3cccnc23)ncn1)c1ccccc1` [Compound 68] returned a Ki of 10 to 100 nM.

In turn, `Cc1ccccc1CNc1cc(-c2c(N)nn3cccnc23)ncn1` [Compound 11] came in with a Ki of 10 to 100 nM.

Consider `C[C@H](Nc1cc(-c2cnn3cccnc23)nc(OCC2CCCN2)n1)c1ccc(F)cc1F` (stereo partly shown) [Compound 216], for which the Ki was 100 to 500 nM.

In the case of `CC[C@H](Nc1cc(-c2c(N)nn3cccnc23)ncn1)c1ccc(F)cc1Cl` [Compound 82], the Ki was 10 to 100 nM.

In turn, `CC[C@H](Nc1ccnc(-c2cnn3cccnc23)n1)c1ccc(F)c(F)c1` [Compound 225] displayed a Ki of 500 to 5000 nM.

The molecule `CCC(=O)Nc1nc(N[C@@H](C)c2ccc(F)cc2F)cc(-c2cnn3cccnc23)n1` [Compound 188] showed an inhibition constant (Ki) of 100 to 500 nM.

Consider `C[C@H](Nc1cc(-c2cnn3cccnc23)nc(OCCN2CCCCC2)n1)c1ccc(F)cc1F` [Compound 195], for which the Ki lay in the range of 10 to 100 nM.

`C[C@H](Nc1cc(-c2c(N)nn3cccnc23)nc(OCCC2CC2)n1)c1ccc(F)cc1` [Compound 157] registered a Ki of 100 to 500 nM.

On to `CC(C)OCCOc1nc(N[C@@H](C)c2ccc(F)cc2F)cc(-c2cnn3cccnc23)n1` [Compound 219], for which the Ki is 10 to 100 nM.

Turning to `C[C@H](Nc1cc(-c2c(N)nn3cccnc23)nc(OCCCN(C)C)n1)c1ccc(F)cc1` [Compound 154], the Ki is 10 to 100 nM.

With `CC(C)CCCOc1nc(N[C@@H](C)c2ccc(F)cc2)cc(-c2c(N)nn3cccnc23)n1` [Compound 167], the Ki lay in the range of 500 to 5000 nM.

For `Nc1nn2cccnc2c1-c1cc(N2CCCC2c2ccccc2)ncn1` (stereo not shown) [Compound 57], the Ki lay within 10 to 100 nM.

Regarding `CN(Cc1cccnc1)c1cc(-c2c(N)nn3cccnc23)ncn1` [Compound 33], the Ki fell in the range of 10 to 100 nM.

The molecule `Nc1nn2cccnc2c1-c1cc(NC2(c3ccc(F)cc3)CC2)ncn1` [Compound 90] returned a Ki of 10 to 100 nM.

Molecule `Nc1nn2cccnc2c1-c1cc(NCc2ccsc2Br)ncn1` [Compound 36] yielded a Ki of 10 to 100 nM.

With `C[C@H](Nc1cc(-c2cnn3cccnc23)nc(OCCCN(C)C)n1)c1ccc(F)cc1F` [Compound 211], the Ki was in the range of 10 to 100 nM.

On to `C#CC(CC)Oc1nc(N[C@@H](C)c2ccc(F)cc2)cc(-c2c(N)nn3cccnc23)n1` (stereo partly shown) [Compound 180], for which the inhibition constant (Ki) lay in the range of 100 to 500 nM.

For `CNC(=O)CC(Nc1cc(-c2cnn3cccnc23)ncn1)c1ccc(F)cc1` (stereo not shown) [Compound 141], the Ki was 10 to 100 nM.

On to `C[C@H](Nc1cc(-c2cnn3cccnc23)nc(OCCNC(C)(C)C)n1)c1ccc(F)cc1F` [Compound 206], for which the Ki was 10 to 100 nM.
